ChEMBL document CHEMBL1158203, “A novel monogalactosylacylglycerol with inhibitory effect on platelet aggregation from the cyanophyceae Oscillatoria rosea” (J Nat Prod, 1996)
Calls of active or inactive are those of the source. No cut-off for these calls is given here.

How the values were obtained:
Platelet [1] = test: Inhibition of thrombin-induced platelet aggregation in rabbit platelet-rich plasma at 100 ug/mL by turbidimetric method; assay type: functional, cell-free; conditions: Oryctolagus cuniculus
Platelet [2] = test: Inhibition of ionomycin-induced platelet aggregation in rabbit platelet-rich plasma at 100 ug/mL by turbidimetric method; assay type: functional, cell-free; conditions: Oryctolagus cuniculus
Platelet [3] = test: Inhibition of U46619-induced platelet aggregation in rabbit platelet-rich plasma at 100 ug/mL by turbidimetric method; assay type: functional, cell-free; conditions: Oryctolagus cuniculus
P388 = test: Cytotoxicity against mouse P388 cells by MTT assay; assay type: functional
Platelet [4] = test: Inhibition of U46619-induced platelet aggregation in rabbit platelet-rich plasma by turbidimetric method; assay type: functional, cell-free; conditions: Oryctolagus cuniculus

IC50 (Platelet [4]) | SMILES | Activity (Platelet [1]) | Activity (Platelet [2]) | Activity (Platelet [3]) | Activity (P388)
– | CCCCCCCCCCCCCC(=O)OC[C@@H](O)COP(=O)([O-])OCC[N+](C)(C)C | Active | Active | Active | –
60 µM | CCCCCCCCCCCCCCCC(=O)OC[C@@H](O)CO[C@@H]1O[C@H](CO)[C@H](O)[C@H](O)C1O (single isomer, unassigned) | inactive | inactive | Active | >50 µg/mL
